From US11660289B2 (Small Pharma Ltd, priority 2020, dated 2023)
Like-named read-outs stand apart in the source and are kept apart here.

How the values were obtained:
[1] = Human liver mitochondrial fraction intrinsic clearance; type: in vitro ADME; conditions: 0.5 mg/mL human liver mitochondrial fraction
Method: Human Liver Mitochondrial (HLMt) fractions contain high quantities of MAO enzymes and therefore, provide a useful model system to measure the clearance of MAO substrates.
A series of investigations using HLMts were conducted to assess the effect of MAO on the metabolism of DMT and deuterated DMT analogues in vitro.

[2] = Rat hepatocyte stability of D0, D6 and D8 5-MeO-DMT analogues; type: in vitro ADME; conditions: cryopreserved pooled rat hepatocytes, 0.5×10^6 viable cells/mL, 60 min; for half-life at 1 μM: cryopreserved pooled rat hepatocytes in suspension, read-out: Qualified t1/2; for hepatocyte CLint at 1 μM: read-out: Qualified CLint (μL/min/10^6 cells)
Method: (§1) Test compounds (5 μM) were incubated with cryopreserved hepatocytes in suspension. Samples were removed at 6 time points over the course of a 60 min experiment and test compounds were analysed by LC-MS/MS.
(§2) The final incubation volume was 500 μL.
(§3) Two control compounds were included with each species. Each compound was incubated for 0, 5, 10, 20, 40 and 60 min at 37° C. The reactions were stopped by transferring incubate into acetonitrile at the appropriate time points, in a 1:3 ratio. The termination plates were centrifuged at 3,000 rpm for 30 min at 4° C. to precipitate the protein.
(§4) Following protein precipitation, the sample supernatants were combined in cassettes of up to 4 compounds, internal standard was added and samples analysed using Cyprotex generic LC-MS/MS conditions.
(§5) From a plot of ln peak area ratio (compound peak area/internal standard peak area) against time, the gradient of the line is determined. Subsequently, half-life (t½) and intrinsic clearance (CLint) were calculated using the equations below:
(§6) Elimination rate constant (k)=(−gradient)
(§7) where V=Incubation volume (μL)/Number of cells

[3] = Human hepatocyte stability of D0, D6 and D8 5-MeO-DMT analogues; type: in vitro ADME; conditions: cryopreserved pooled human hepatocytes in suspension, cryopreserved pooled human hepatocytes, 0.5×10^6 viable cells/mL, 60 min; for hepatocyte CLint: read-out: Qualified CLint (μL/min/10^6 cells); for half-life: read-out: Qualified t1/2
Method: as §1, §2, §3, §4, §5, §6, §7

[4] = in vivo; cited from earlier work
Rat hepatocytes = assay: Rat hepatocyte stability of D0, D6 and D8 5-MeO-DMT analogues; type: in vitro ADME; conditions: for Fold change from 5-MeO-DMT, CLint / Fold change from 5-MeO-DMT, t1/2: Rat hepatocytes; for Qualified CLint (μL/min/10^6 cells) / Qualified t1/2: cryopreserved pooled rat hepatocytes, 0.5×10^6 viable cells/mL, 60 min
Method: as §1, §2, §3, §4, §5, §6, §7

Human hepatocytes = assay: Human hepatocyte stability of D0, D6 and D8 5-MeO-DMT analogues; type: in vitro ADME; conditions: for Fold change from 5-MeO-DMT, CLint / Fold change from 5-MeO-DMT, t1/2: Human hepatocytes; for Qualified CLint (μL/min/10^6 cells) / Qualified t1/2: cryopreserved pooled human hepatocytes, 0.5×10^6 viable cells/mL, 60 min
Method: as §1, §2, §3, §4, §5, §6, §7

[5] = cited from earlier work
[6] = Human half-life and clearance of DMT calculated from modelled literature data; conditions: in vivo; for clearance: read-out: clearance rate
Source text: DMT is metabolised very quickly in the human body. […] Based on these calculations, we reasoned that DMT is largely metabolised before reaching the human liver.

[7] = In vivo pharmacokinetic profile after IV and IM dosing in rats
[8] = system: Human (mixed gender) hepatocytes; assay: Human hepatocyte intrinsic clearance of DMT and deuterated DMT analogues
Method: Standard final incubation conditions are 1 μM compound in buffer containing nominally ˜0.5 million viable cells/mL, ˜0.9% (v/v) acetonitrile (MeCN) and ˜0.1% (v/v) DMSO (specific assay concentrations outlined above, section 2).
Samples are then centrifuged at 4 oc.

[9] = calculated from modelled data of Timmermann et al.

## NCc1ccccc1 [Benzylamine, benzylamine]
[1]
  Intrinsic Clearance (μL/min/mg protein): 60.0 μL/min/mg protein
  half-life: 23.2 min

## COc1ccc2[nH]cc(CCN(C)C)c2c1 [Compound 5-MeO-DMT, 5-Methoxy-N,N-dimethyltryptamine]
[2]
  half-life at 1 μM: 4.46 min
  hepatocyte CLint at 1 μM: 312 µL/min/1e6 cells
[3]
  hepatocyte CLint: 104 µL/min/1e6 cells
  half-life: 13.3 min

## [2H]C([2H])(c1c[nH]c2ccccc12)C([2H])([2H])N(C)C [Compound D4DMT, α,α,β,β-tetradeuterio-DMT]
[4]
  onset and behaviour disrupting effects compared to equal doses of DMT: shorter time to onset and potentiation of behaviour disrupting effects

## [2H]C([2H])([2H])N(CCc1c[nH]c2ccc(OC)cc12)C([2H])([2H])[2H] [Compound D6-5MeO-DMT, d6-5-Methoxydimethyltryptamine]
Rat hepatocytes
  Fold change from 5-MeO-DMT, CLint: 1.5 fold
  Fold change from 5-MeO-DMT, t1/2: 1.5 fold
  Qualified CLint (μL/min/10^6 cells): 205.5 μL/min/10^6 cells
  Qualified t1/2: 6.76 min
Human hepatocytes
  Fold change from 5-MeO-DMT, CLint: 1.2 fold
  Fold change from 5-MeO-DMT, t1/2: 1.2 fold
  Qualified CLint (μL/min/10^6 cells): 85.7 μL/min/10^6 cells
  Qualified t1/2: 16.2 min

## CNCCc1c[nH]c2ccccc12 [NMT, N-Methyltryptamine]
[5]; smoking, 50-100 mg
  duration of “visuals”: 15 to 30 s

## O=C(c1ccc(OCCN2CCCCC2)cc1)c1c(-c2ccc(O)cc2)sc2cc(O)ccc12 [Raloxifene]
[2]
  half-life at 1 μM: 11.1 min
  hepatocyte CLint at 1 μM: 125 µL/min/1e6 cells
[3]
  hepatocyte CLint: 152 µL/min/1e6 cells
  half-life: 9.13 min

## CN(C)CCc1c[nH]c2ccccc12 [SPL026, N,N-dimethyltryptamine]
[1]
  Intrinsic Clearance (μL/min/mg protein): 161.0 μL/min/mg protein
  half-life: 8.6 min
[6]; based on a 70 kg person
  clearance: 350 mL/min/kg
[6]; [9]
  half-life: ~5 min
  clearance: 24500 mL/min
[5]; in vivo
  duration of action: under 20 minutes
[7]; rats, 2 mg/kg IV fumarate
  Difference in AUC0-inf between male and female groups: no significant difference

## [2H]C([2H])([2H])N(CCc1c[nH]c2ccccc12)C([2H])([2H])[2H] [SPL028vii, N,N-hexadeuterio-dimethyltryptamine]
[8]
  Intrinsic clearance of SPL026 minus intrinsic clearance of SPL028vii: 2.3 μL/min/million cells

## [2H]C([2H])([2H])N(C([2H])([2H])[2H])C([2H])([2H])Cc1c[nH]c2ccccc12 [SPL028viii, α,α,bis-deuterio-N,N-hexadeuterio-dimethyltryptamine]
[1]
  Intrinsic Clearance (μL/min/mg protein): 10.9 μL/min/mg protein
[7]; rat plasma, following IV and IM dosing (FIGS. 1 to 3)
  Overall exposure compared with DMT (SPL026): greater overall exposure
[7]; rats, equivalent single IV and IM doses, ANOVA
  Total systemic exposure (mean AUC0-inf) compared to SPL026: significantly higher total systemic exposure
[7]; rats, following IM dosing
  Cmax compared with DMT (SPL026): significantly higher

## NCCc1c[nH]c2ccc(O)cc12 [Serotonin, serotonin]
[1]
  Intrinsic Clearance (μL/min/mg protein): 151.0 μL/min/mg protein
  half-life: 9.2 min

## d8-5-Methoxydimethyltryptamine [Compound D8-5MeO-DMT]
Rat hepatocytes
  Fold change from 5-MeO-DMT, CLint: 1.8 fold
  Fold change from 5-MeO-DMT, t1/2: 1.8 fold
  Qualified CLint (μL/min/10^6 cells): 176.0 μL/min/10^6 cells
  Qualified t1/2: 7.89 min
Human hepatocytes
  Fold change from 5-MeO-DMT, CLint: 1.8 fold
  Fold change from 5-MeO-DMT, t1/2: 1.8 fold
  Qualified CLint (μL/min/10^6 cells): 57.6 μL/min/10^6 cells
  Qualified t1/2: 24.3 min
